Measurements taken from patent US20100075907A1, “NEUROMEDIN U RECEPTOR AGONISTS AND USES THEREOF” (priority 2006, published 2010).
Starred links: 1 amine or outer side, 2 acyl side, 3 side chain; linkers in the order of their positions; H or OH if unused. Non-standard residues stand in square brackets, D forms with d. Residues, ends and D or L forms follow the SMILES beside them. *: point of attachment. X2 = CCN1C(=O)CC(SC[C@H](NC(C)=O)C(=O)NCCCOCCOCCOCCCN*)C1=O; Succinimide(1-Et,3-yl) = CCN1C(=O)CC(*)C1=O; Palmitoyl = CCCCCCCCCCCCCCCC(=O)*; Suc = O=C(CCC(=O)[*:2])[*:1]

Columns and labels:
[1] = target: T1, rat NMUR1-TTG (Rattus norvegicus, UniProt Q9JJI5); assay: FLIPR calcium mobilization assay, rat NMUR1-TTG; format: cell-based; parameters: expressed in transfected cells; host or cells: FLP-In CHO or HEK-293 FLP-In cells (pcDNA5); settings: for EC50: FLIPR
T1 sequence (Q9JJI5 1-425): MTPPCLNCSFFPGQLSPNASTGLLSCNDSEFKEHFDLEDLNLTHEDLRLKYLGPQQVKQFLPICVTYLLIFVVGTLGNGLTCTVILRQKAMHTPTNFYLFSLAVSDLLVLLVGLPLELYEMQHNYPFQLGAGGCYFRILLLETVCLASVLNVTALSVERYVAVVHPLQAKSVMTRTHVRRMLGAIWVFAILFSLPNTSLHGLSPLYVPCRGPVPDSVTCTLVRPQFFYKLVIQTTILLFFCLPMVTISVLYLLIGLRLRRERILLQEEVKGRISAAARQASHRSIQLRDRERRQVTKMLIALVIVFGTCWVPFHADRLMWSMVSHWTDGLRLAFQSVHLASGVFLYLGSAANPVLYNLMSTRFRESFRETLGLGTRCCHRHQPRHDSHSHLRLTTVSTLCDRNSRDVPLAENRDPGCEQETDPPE
From the text: Human, mouse or rat cDNAs encoding NMUR1 or NMUR2 (as described in Howard et al. Nature 406: 70-74 (2000) were subcloned in pcDNA5 (Invitrogen) and transfected into FLP-In CHO cells and HEK-293 FLP-In cells purchased from Invitrogen (Carlsbad, Calif.) using lipofectamine (Invitrogen). The Flp-In system allows integration and expression of a particular gene of interest at a specific genomic location utilizing the Flp recombinase from yeast. The transfected cells were selected by growth in medium containing 200 μg/mL hygromycin (Invitrogen). Populations were frozen at early passage numbers, and these stocks were used for further studies. Stable clones that expressed the mRNAs were identified functionally by FLIPR as well as by RT-PCR. […] Two different rodent NMUR1 cell lines were thus generated: one with the codon as predicted from the genomic databases and another cell line with an engineered methionine (ATG) as the start codon. Additionally, stable cell lines expressing the human receptors were generated in HEK-293/aeq17 cells which stably express the aequorin gene under the CMV promoter. The human NMUR2 cDNA was cloned into pcDNA3.1 and human NMUR1 was subcloned into pIRES-puro (Clontech, Mountain View, Calif.), after transfection cells were selected in media containing G418 and either hygromycin (NMUR2) or puromycin (NMUR1).
The NMU receptors signal primarily through Gαq/11 proteins; therefore calcium mobilization assays can be utilized for functional activity.
Stable cell lines expressing human and or rodent NMUR1 or human NMUR2 receptors were plated at a density of 12,000 cells per well overnight on poly-lysine coated 384-well black-walled plates. The following day, the media was removed from the plates and the cells were subsequently loaded with Fluo-3 (Molecular Probes), a calcium sensitive dye, diluted in FLIPR buffer (1× Hank's buffered saline containing 20 mM HEPES, 0.1% BSA, 2.5 mM probenecid (Sigma) and 1.6 mM TR40). All reagents are from Invitrogen unless otherwise noted. Peptide stocks were resuspended in DMSO at a stock concentration of 2 mM and diluted in FLIPR buffer on the day of the experiment to a 4 μM working stock solution.
After a 90 minute incubation at room-temperature, cell plates were loaded onto a FLIPR (Molecular Devices) to monitor cellular fluorescence (excitation=488 nm; emission=540 nm) before and after compound/peptide addition. Eight to twelve point dose responses were tested on NMUR-expressing cell lines using FLIPR with 1 μM peptide as the highest dose. The response after peptide addition was taken as the maximum fluorescence units minus the fluorescence immediately prior to stimulation for each well. EC50 values were calculated using GraphPad Prism (San Diego, Calif.) software.
In vitro responses of Neuromedin U receptor agonists (NMU1 to NMU25) in the FLIPR assay for human (Table 3), mouse (Table 4) and rat (Table 5) NMUR1 and NMUR2. EC50s are reported in nM values. Percent activity refers to the maximum response at 1 μM compared to the hNMU-25 response at the same concentration. NT=not tested.

[2] = target: hNMUR2 (Homo sapiens, UniProt Q9GZQ4); assay: 125I-hNMU-25 binding assay, human NMUR2 membranes; parameters: expressed in transfected cells; host or cells: HEK-293 FLP-In cells (pcDNA5); HEK-293/aeq17 lines (pcDNA3.1) were also made; % inhibition of NMU-25 binding / % Activity: concentration or dose not given beside the values; settings: human R2
Sequence of hNMUR2 (Q9GZQ4 whole entry): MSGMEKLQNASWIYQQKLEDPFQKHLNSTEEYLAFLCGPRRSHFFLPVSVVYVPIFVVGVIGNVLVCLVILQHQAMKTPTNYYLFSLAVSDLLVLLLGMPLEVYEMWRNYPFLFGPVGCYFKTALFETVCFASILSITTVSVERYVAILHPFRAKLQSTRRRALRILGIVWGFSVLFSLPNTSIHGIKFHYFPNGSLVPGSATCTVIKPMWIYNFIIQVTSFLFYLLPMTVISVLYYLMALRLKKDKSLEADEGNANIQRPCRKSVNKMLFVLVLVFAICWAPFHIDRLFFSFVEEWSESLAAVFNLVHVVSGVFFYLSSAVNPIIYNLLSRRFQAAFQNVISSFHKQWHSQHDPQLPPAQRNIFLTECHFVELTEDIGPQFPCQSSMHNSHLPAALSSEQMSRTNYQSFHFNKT
Experimental: Confluent cell monolayers expressing NMU receptors (the HEK cells described above) were harvested with phosphate buffered saline, collected by centrifugation, and resuspended in membrane buffer (50 mM TrisCl pH 7.4, 5 mM MgCl2, 1× Protease Inhibitor Cocktail, 10 μM phosphoramidon). After the cell pellet was homogenized, the solution was centrifuged at 18,000 rpm for 20 minutes at 4° C. The pellet was resuspended in membrane buffer to yield a final concentration of 0.5-5 μg/μL of membrane and stored at −80° C.
Experiments were performed in assay buffer (25 mM TrisCl, pH 7.4, 10 mM MgCl2, 2 mM EDTA, 1× Protease Inhibitor Cocktail, 100 μg/mL Bacitricin, 10 μM phosphoramidon) in 200 μL volumes in a 96-well format using 2-5 μg of membrane and 0.1 nM ^125I-hNMU-25 (about 12,000 cpm/well). For non-specific binding, 1 μM hNMU-25 was added. About 5 μL of peptides were added to measure antagonist activity, and the entire reaction was incubated at room temperature with shaking for 80 minutes. The reaction was terminated by rapid filtration through 0.3% poly-ethylenimine presoaked Millipore 96-well filter plates and washed with ice-cold buffer (5 mM TrisCl pH 7.4, 10 mM MgCl2, 2.5 mM EDTA, 0.04% Triton X-100). Plates were air-dried overnight at room temperature and recovered radioactivity was determined by standard scintillation counting. IC50 values were determined using GraphPad Prism software.
Concentration-response curves and radioligand-binding data were fitted using Prism (GraphPad Software). Results are summarized below in Tables 8 and 9.

[3] = maximum response at 1 μM compared to hNMU-25, rat NMUR1-TTG

CCN1C(=O)CC(SC[C@H](NC(C)=O)C(=O)N[C@@H](Cc2ccccc2)C(=O)N[C@@H](CCCNC(=N)N)C(=O)N[C@H](C(=O)N[C@@H](CC(=O)O)C(=O)N[C@@H](CCC(=O)O)C(=O)N[C@@H](CCC(=O)O)C(=O)N[C@@H](Cc2ccccc2)C(=O)N[C@@H](CCC(N)=O)C(=O)N[C@@H](CO)C(=O)N2CCC[C@H]2C(=O)N[C@@H](Cc2ccccc2)C(=O)N[C@@H](C)C(=O)N[C@@H](CO)C(=O)N[C@@H](CCC(N)=O)C(=O)N[C@@H](CO)C(=O)N[C@@H](CCCNC(=N)N)C(=O)NCC(=O)N[C@@H](Cc2ccc(O)cc2)C(=O)N[C@@H](Cc2ccccc2)C(=O)N[C@H](C)C(=O)N[C@@H](Cc2c[nH]c3ccccc23)C(=O)N[C@@H](CCCNC(=N)N)C(=O)N2CCC[C@H]2C(=O)N[C@@H](CCCNC(=N)N)C(=O)N[C@@H](CC(N)=O)C(N)=O)C(C)C)C1=O (stereo partly shown) [NMU13] (Ac-C(Succinimide(1-Et,3-yl))FRVDEEFQSPFASQSRGYF[dA]WRPRN-NH2)
% Activity ([1]; functional, rat R1-TTG, relative to native hNMU responses): 94%
% Activity [1, 3]: 94.6%
IC50 ([2]; binding): > 1000 nM
% inhibition of NMU-25 binding [2]: 48%

Ac-C4-C4-FRVDEEFQSPFASQSRGYFLFRPRN-CONH2 ({Ac-C(PEG 20 kDa)-C(PEG 20 kDa)}-FRVDEEFQSPFASQSRGYFLFRPRN-NH2) [NMU23, C4 = Cys(PEG)20 kDa]
% Activity [1, 3]: 39.8%

CCN1C(=O)CC(SC[C@H](NC(C)=O)C(=O)N[C@@H](Cc2ccccc2)C(=O)N[C@@H](CCC(N)=O)C(=O)N[C@@H](CO)C(=O)N2CCC[C@H]2C(=O)N[C@@H](Cc2ccccc2)C(=O)N[C@@H](C)C(=O)N[C@@H](CO)C(=O)N[C@@H](CCC(N)=O)C(=O)N[C@@H](CO)C(=O)N[C@@H](CCCNC(=N)N)C(=O)NCC(=O)N[C@@H](Cc2ccc(O)cc2)C(=O)N[C@@H](Cc2ccccc2)C(=O)N[C@@H](CC(C)C)C(=O)N[C@@H](Cc2ccccc2)C(=O)N[C@@H](CCCNC(=N)N)C(=O)N2CCC[C@H]2C(=O)N[C@@H](CCCNC(=N)N)C(=O)N[C@@H](CC(N)=O)C(N)=O)C1=O (stereo partly shown) [NMU19] (Ac-C(Succinimide(1-Et,3-yl))FQSPFASQSRGYFLFRPRN-NH2)
% Activity [1, 3]: 100%

CCN1C(=O)CC(SC[C@H](NC(C)=O)C(=O)N[C@@H](CSC2CC(=O)N(CC)C2=O)C(=O)N[C@@H](Cc2ccccc2)C(=O)N[C@@H](CCCNC(=N)N)C(=O)N[C@H](C(=O)N[C@@H](CC(=O)O)C(=O)N[C@@H](CCC(=O)O)C(=O)N[C@@H](CCC(=O)O)C(=O)N[C@@H](Cc2ccccc2)C(=O)N[C@@H](CCC(N)=O)C(=O)N[C@@H](CO)C(=O)N2CCC[C@H]2C(=O)N[C@@H](Cc2ccccc2)C(=O)N[C@@H](C)C(=O)N[C@@H](CO)C(=O)N[C@@H](CCC(N)=O)C(=O)N[C@@H](CO)C(=O)N[C@@H](CCCNC(=N)N)C(=O)NCC(=O)N[C@@H](Cc2ccc(O)cc2)C(=O)N[C@@H](Cc2ccccc2)C(=O)N[C@@H](CC(C)C)C(=O)N[C@@H](Cc2ccccc2)C(=O)N[C@@H](CCCNC(=N)N)C(=O)N2CCC[C@H]2C(=O)N[C@@H](CCCNC(=N)N)C(=O)N[C@@H](CC(N)=O)C(N)=O)C(C)C)C1=O (stereo partly shown) [NMU22] (Ac-C(Succinimide(1-Et,3-yl))C(Succinimide(1-Et,3-yl))FRVDEEFQSPFASQSRGYFLFRPRN-NH2)
% Activity [1, 3]: 96.4%

Ac-C4FRVDEEFQSPFASQSRGYFLFRPRN-CONH2 ({Ac-C(PEG 20 kDa)}-FRVDEEFQSPFASQSRGYFLFRPRN-NH2) [NMU21, C4 = Cys(PEG)20 kDa]
EC50 ([1]; rat NMUR1-TTG): 220 nM
% Activity [1, 3]: 77.5%

CCCCCCCCCCCCCCCC(=O)N[C@@H](CSC1CC(=O)N(CC)C1=O)C(=O)N[C@@H](Cc1ccccc1)C(=O)N[C@@H](CCCNC(=N)N)C(=O)N[C@H](C(=O)N[C@@H](CC(=O)O)C(=O)N[C@@H](CCC(=O)O)C(=O)N[C@@H](CCC(=O)O)C(=O)N[C@@H](Cc1ccccc1)C(=O)N[C@@H](CCC(N)=O)C(=O)N[C@@H](CO)C(=O)N1CCC[C@H]1C(=O)N[C@@H](Cc1ccccc1)C(=O)N[C@@H](C)C(=O)N[C@@H](CO)C(=O)N[C@@H](CCC(N)=O)C(=O)N[C@@H](CO)C(=O)N[C@@H](CCCNC(=N)N)C(=O)NCC(=O)N[C@@H](Cc1ccc(O)cc1)C(=O)N[C@@H](Cc1ccccc1)C(=O)N[C@@H](CC(C)C)C(=O)N[C@@H](Cc1ccccc1)C(=O)N[C@@H](CCCNC(=N)N)C(=O)N1CCC[C@H]1C(=O)N[C@@H](CCCNC(=N)N)C(=O)N[C@@H](CC(N)=O)C(N)=O)C(C)C (stereo partly shown) [NMU24] (Palmitoyl-C(Succinimide(1-Et,3-yl))FRVDEEFQSPFASQSRGYFLFRPRN-NH2)
% Activity [1, 3]: 67.7%

CCN1C(=O)CC(SC[C@H](NC(C)=O)C(=O)N[C@@H](C)C(=O)N[C@@H](CO)C(=O)N[C@@H](CCC(N)=O)C(=O)N[C@@H](CO)C(=O)N[C@@H](CCCNC(=N)N)C(=O)NCC(=O)N[C@@H](Cc2ccc(O)cc2)C(=O)N[C@@H](Cc2ccccc2)C(=O)N[C@@H](CC(C)C)C(=O)N[C@@H](Cc2ccccc2)C(=O)N[C@@H](CCCNC(=N)N)C(=O)N2CCC[C@H]2C(=O)N[C@@H](CCCNC(=N)N)C(=O)N[C@@H](CC(N)=O)C(N)=O)C1=O (stereo partly shown) [NMU17] (Ac-C(Succinimide(1-Et,3-yl))ASQSRGYFLFRPRN-NH2)
% Activity [1, 3]: 105.3%

CCN1C(=O)CC(SC[C@H](NC(C)=O)C(=O)NCCCOCCOCCOCCCNC(=O)CCC(=O)N[C@@H](Cc2ccccc2)C(=O)N[C@@H](CC(C)C)C(=O)N[C@@H](Cc2ccccc2)C(=O)N[C@@H](CCCNC(=N)N)C(=O)N2CCC[C@H]2C(=O)N[C@@H](CCCNC(=N)N)C(=O)N[C@@H](CC(N)=O)C(N)=O)C1=O (stereo partly shown) [NMU15, Ac-C1-Ttds-FLFRPRN-CONH2] ({X2-Suc}-FLFRPRN-NH2)
% Activity [1, 3]: 107.5%

Ac-C2FQSPFASQSRGYFLFRPRN-CONH2 ({Ac-C(PEG 40 kDa)}-FQSPFASQSRGYFLFRPRN-NH2; not fully specified; printed as Ac-C2FQSPFASQSRGYFLFRPRN-CONH2) [NMU20, C2 = Cys(PEG)240 kDa]
EC50 ([1]; rat NMUR1-TTG): 24.4 nM
% Activity [1, 3]: 93.8%

Pam-C2FRVDEEFQSPFASQSRGYFLFRPRN-CONH2 ({Palmitoyl-C(PEG 40 kDa)}-FRVDEEFQSPFASQSRGYFLFRPRN-NH2) [NMU25, Pam = palmitoyl; C2 = Cys(PEG)240 kDa]
EC50 ([1]; rat NMUR1-TTG): 81 nM
% Activity [1, 3]: 93.5%
